Assay results from PMC7838189, “Natural podophyllotoxin analog 4DPG attenuates EMT and colorectal cancer progression via activation of checkpoint kinase 2” (Cell Death Discovery, 2021).

Legend:
[1] = test system: tumor tissues of orthotopic rat colorectal carcinoma; test: Western blotting of tumor tissues; format: in vivo, Wistar rats; settings: 4DPG-treated group vs saline
Description: We adhered to the previously published protocol for western blotting. To sum up, cells were exposed to the respective treatments (mentioned in figure legends). Post-treatment, cells were lysed with cell lysis buffer, and cell lysates were collected after centrifugation. Bradford assay was performed to quantify the protein concentration. Equal amount of protein was taken from each sample to carry out the western blot analysis. SDS-PAGE was employed to separate the proteins that were later transferred onto PVDF membranes (Millipore, Billerica, MA). Next, the membranes were blocked with 5% skim milk and subsequently incubated with the specific primary antibodies (1:1000 dilution), either for 3 h at room temperature or overnight at 4 °C. Later, the blots were washed thoroughly with TBST and probed with the respective secondary antibodies (1:2000 dilution) coupled with horseradish peroxidase for 1 h. Following thorough washing, the membranes were visualized using enhanced chemiluminescence reagent (Millipore) and captured onto Biomax light film (The Eastman Kodak Co., Rochester, NY).

HCT-116/5-FU-R cells = test: Matrigel invasion assay; format: cell-based; settings: SiChk2 and PV1019 pre-treated conditions, 48 h
Description: To examine whether 4DPG-mediated repression of Vimentin and invasiveness is a Chk2-dependent process, we performed genetic silencing of endogenous Chk2 in the 5-FU-R cells using target-specific SiRNAs.
Fig. 3 Chk2-dependent role of 4DPG in modulating p53 and repressing Vimentin expression in 5-FU-R cells. A Immunocytochemistry results showing the Vimentin expression level in SW-620/5-FU-R cells treated/transfected with scramble, SiChk2, scramble plus 4DPG, SiChk2 plus 4DPG, vehicle, PV1019, 4DPG, and PV1019 plus 4DPG for 48 h. Scale bars: 50 µm. […] C Matrigel invasion assay results showing invaded HCT-116/5-FU-R and SW-620/5-FU-R cells following 48 h of transient transfection with GFP and GFP-Chk2 plasmid construct. Scale bars: 50 µm. D Quantification of the number of invaded cells per field from the above experimental conditions. n = 3, error bars, mean ± SD; *P < 0.05, ***P < 0.001. E Immunocytochemistry results displaying Vimentin expression levels in HCT-116/5-FU-R and SW-620/5-FU-R cells after 48 h of transient transfection with pCDNA3 and/or HA-Chk2 plasmid construct. Scale bars: 50 µm. F Immunoprecipitation with Vimentin or p53 followed by western blotting analysis of p53 in SW-620/5-FU-R cells treated with vehicle and/or 4DPG (300 nM) for 48 h. […]

SW-620/5-FU-R cells [2] = test: Cellular fractionation and western blotting of p53 and Vimentin; format: cell-based; settings: 300 nM, 48 h, vs vehicle
Description: Fig. 3 Chk2-dependent role of 4DPG in modulating p53 and repressing Vimentin expression in 5-FU-R cells. A Immunocytochemistry results showing the Vimentin expression level in SW-620/5-FU-R cells treated/transfected with scramble, SiChk2, scramble plus 4DPG, SiChk2 plus 4DPG, vehicle, PV1019, 4DPG, and PV1019 plus 4DPG for 48 h. Scale bars: 50 µm. […] C Matrigel invasion assay results showing invaded HCT-116/5-FU-R and SW-620/5-FU-R cells following 48 h of transient transfection with GFP and GFP-Chk2 plasmid construct. Scale bars: 50 µm. D Quantification of the number of invaded cells per field from the above experimental conditions. n = 3, error bars, mean ± SD; *P < 0.05, ***P < 0.001. E Immunocytochemistry results displaying Vimentin expression levels in HCT-116/5-FU-R and SW-620/5-FU-R cells after 48 h of transient transfection with pCDNA3 and/or HA-Chk2 plasmid construct. Scale bars: 50 µm. F Immunoprecipitation with Vimentin or p53 followed by western blotting analysis of p53 in SW-620/5-FU-R cells treated with vehicle and/or 4DPG (300 nM) for 48 h. G Cytosolic (left panel) and nuclear (right panel) extracts of SW-620/5-FU-R cells treated with vehicle and/or 4DPG (300 nM) for 48 h showing protein expression of Vimentin and p53. Tubulin and lamin expression was considered as endogenous loading controls for cytosolic and nuclear fractions, respectively.
Moreover, to gain mechanistic insights into how 4DPG-induced activation of Chk2 suppresses EMT and invasiveness, we examined the downstream substrates of Chk2. Tumor suppressor p53 acts as a direct substrate of Chk2 that regulates cell cycle, DNA repair, or apoptosis of cancer cells in response to DNA damage[27],[39]. We attempted to investigate whether there any molecular interaction takes place between Vimentin and p53 in these 5-FU-R cells. Our immunoprecipitation analysis unveiled that 4DPG potentially interrupted the association of Vimentin and p53 in SW-620/5-FU-R cells. […] Since 4DPG disrupted the Vimentin–p53 association, we were curious to see the consequences on p53 expression in various cellular compartments. We separated cytosolic and nuclear fractions of SW-620/5-FU-R cells treated with vehicle and/or 4DPG and conducted western blotting analysis considering relevant loading controls.
SW-620/5-FU-R cells seeded in 90-mm Petri dishes were treated with vehicle and/or 4DPG for 48 h, following overnight incubation. Cells were then harvested, washed with PBS; cytosolic and nuclear extracts were prepared following our established protocol[37],[56].

SW-620/5-FU-R cells [3] = test: In situ fluorescent gelatin degradation assay (invadopodia); format: cell-based; settings: 48 h, vs vehicle
Description: 4DPG, a podophyllotoxin class of natural product anticancer compound (Supplementary Fig. S2A) has been recently described by our research group for its potent antitumor and anti-metastatic properties against aggressive cancers[31],[32]. Further, 4DPG augments phosphorylation and activation of Chk2 (Thr68) leading to suppression of EMT and invasiveness of p53-defective cancer cells. To investigate the effect of 4DPG on phosphorylation and expression levels of Chk2 in HCT-116/5-FU-R, SW-620/5-FU-R, and HT-29/5-FU-R cells, we treated these cells for 48 h with increasing concentrations of the compound, and whole-cell lysates were subjected to western blotting analysis. […] To determine the effect of 4DPG on the invasion abilities of these 5-FU-R cells, we performed in situ fluorescent gelatin degradation assay following our pre-standardized protocol[31],[37]. In physiological conditions, this assay mimics the extracellular matrix degradation by aggressive tumor cells undergoing invasion–metastasis process.
Fig. 2 4DPG activates Chk2 and attenuates EMT in 5-FU-R CRC cells. […] G Quantification of the area of degradation through Image J software. n = 3, error bars, mean ± SD; ***P < 0.001. […]

COc1cc([C@@H]2c3cc4c(cc3C[C@H]3COC(=O)[C@@H]32)OCO4)cc(OC)c1O[C@@H]1O[C@H](CO)[C@@H](O)[C@H](O)[C@H]1O [4DPG, 4′-demethyl-deoxypodophyllotoxin glucoside]
activation of p53 in tumor tissues [1]: 5.82 fold | activation of p-Chk2 (Thr68) in tumor tissues [1]: 3.54 fold | downmodulation of Vimentin in tumor tissues [1]: 8.3 fold | downmodulation of p-Vimentin (ser38) in tumor tissues [1]: 18.2 fold | effect of 4DPG to block invasion abilities (HCT-116/5-FU-R cells): distinctly reduced | augmentation in p53 expression, cytosolic fraction (SW-620/5-FU-R cells [2]): 1.65 fold | decrease in Vimentin level, nuclear fraction (SW-620/5-FU-R cells [2]): 20 fold | downregulation of Vimentin level, cytosolic fraction (SW-620/5-FU-R cells [2]): 2.2 fold | increase in p53, nuclear fraction (SW-620/5-FU-R cells [2]): 2.2 fold | invadopodia formation and area of degradation over the gelatin matrix (SW-620/5-FU-R cells [3]): significantly reduced
